Data from patent publication US6737383B1, “Herbicidal oxadiazolidines” (priority 1999, dated 2004).

How the values were obtained:
[1] = tested on: common groundsel; test: Test D common groundsel; type: in vivo, Senecio vulgaris; conditions: Preemergence, 0 to 100 scale
Procedure, shortened: (§1)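 Each weed species is planted in its own pot or compartment; preemergence doses go on the sandy loam surface within a day. The formulation is a surfactant-containing, non-phytotoxic solvent blend. Ratings come from visual comparison with untreated controls 14 to 21 days later, where 100 means complete control.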

[2] = tested on: Alexandergrass; test: Test D Alexandergrass; type: in vivo, Brachiaria plantaginea; conditions: Preemergence, 0 to 100 scale
Procedure, shortened: as §1

[3] = tested on: common pursiane; test: Test D common purslane; type: in vivo, Portulaca oleracea
Procedure, shortened: as §1

[4] = tested on: Spanishneedles; test: Test D Spanishneedles; type: in vivo, Bidens bipinnata; conditions: Preemergence, 0 to 100 scale
Procedure, shortened: as §1

[5] = tested on: pitted morningglory; test: Test D pitted morningglory; type: in vivo, Ipomoea lacunosa; conditions: Preemergence, 0 to 100 scale
Procedure, shortened: as §1

[6] = tested on: Green foxtail; test: Test D green foxtail; type: in vivo
Procedure, shortened: as §1

[7] = tested on: bermuda-grass; test: Test D bermudagrass; type: in vivo, Cynodon dactylon; conditions: Preemergence, 0 to 100 scale
Procedure, shortened: as §1

[8] = tested on: itchgrass; test: Test D itchgrass; type: in vivo, Rottboellia exaltata; conditions: Preemergence, 0 to 100 scale
Procedure, shortened: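 Scoring used a 0–100 visual injury scale, with 0 meaning no effect and 100 complete control, assessed 14–21 days after application alongside untreated pots. Preemergence treatments went onto sandy loam surfaces of separately potted seeds within a day of sowing.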

[9] = tested on: sandbur; test: Test D sandbur; type: in vivo, Cenchrus echinatus; conditions: Preemergence, 0 to 100 scale
Procedure, shortened: as §1

[10] = tested on: Green foxtail; test: Test D green foxtail; type: in vivo; conditions: Preemergence, 0 to 100 scale
Procedure, shortened: as §1

[11] = tested on: tall mallow; test: Test D tall mallow; type: in vivo, Malva sylvestris; conditions: Preemergence, 0 to 100 scale
Procedure, shortened: as §1

[12] = tested on: Johnson grass; test: Test D Johnson grass; type: in vivo, Sorghum halepense; conditions: Preemergence, 0 to 100 scale
Procedure, shortened: as §1

[13] = tested on: goosegrass; test: Test D goosegrass; type: in vivo, Eleusine indica; conditions: Preemergence, 0 to 100 scale
Procedure, shortened: as §1

[14] = tested on: dallisgrass; test: Test D dallisgrass; type: in vivo, Paspalum dilatatum; conditions: Preemergence, 0 to 100 scale
Procedure, shortened: as §1

[15] = tested on: surinam grass; test: Test D surinam grass; type: in vivo, Brachiaria decumbens; conditions: Preemergence, 0 to 100 scale
Procedure, shortened: as §1

[16] = Rate 16 g/ha, 0 no injury, 100 complete control
[17] = Rate 32 g/ha, 0 no injury, 100 complete control
[18] = Rate 64 g/ha, 0 no injury, 100 complete control
[19] = Rate 125 g/ha, 0 no injury, 100 complete control
[20] = Rate 16 g/ha; Preemergence; 0 to 100 scale, 0 no injury, 100 complete control
[21] = Rate 32 g/ha; Preemergence; 0 to 100 scale, 0 no injury, 100 complete control
[22] = Rate 64 g/ha, Preemergence; 0 to 100 scale, 0 no injury, 100 complete control
[23] = Rate 125 g/ha, Preemergence; 0 to 100 scale, 0 no injury, 100 complete control
[24] = Rate 250 g/ha; Preemergence; 0 to 100 scale
[25] = Rate 500 g/ha, Preemergence; 0 to 100 scale
[26] = Rate 500 g/ha; Preemergence; 0 to 100 scale

SMILES: CCn1c(=O)on(C(=O)N(c2ccc(Cl)cc2)C(C)C)c1=O [Compound 108]
- Plant response rating, Com. groundsel [1, 16]: 65
- Plant response rating, Com. groundsel [1, 17]: 75
- Plant response rating, Com. groundsel [1, 18]: 85
- Plant response rating, Com. groundsel [1, 19]: 100
- Plant response rating, Com. groundsel ([1]; Rate 250 g/ha): 100
- Plant response rating, Com. groundsel ([1]; Rate 500 g/ha): 100
- Plant response rating, Alexandergrass [2, 16]: 20
- Plant response rating, Alexandergrass [2, 17]: 20
- Plant response rating, Alexandergrass [2, 18]: 85
- Plant response rating, Alexandergrass [2, 19]: 98
- Plant response rating, Alexandergrass ([2]; Rate 250 g/ha): 100
- Plant response rating, Alexandergrass ([2]; Rate 500 g/ha): 100
- Plant response rating, C. purslane [3, 20]: 0
- Plant response rating, C. purslane [3, 21]: 0
- Plant response rating, C. purslane [3, 22]: 0
- Plant response rating, C. purslane [3, 23]: 0
- Plant response rating, C. purslane [3, 24]: 0
- Plant response rating, C. purslane [3, 25]: 80
- Plant response rating, C. purslane [3, 26]: 0
- Plant response rating, Spanishneedles [4, 16]: 0
- Plant response rating, Spanishneedles [4, 17]: 0
- Spanishneedles plant response rating [4, 18]: 0
- Spanishneedles plant response rating [4, 19]: 0
- Plant response rating, Spanishneedles ([4]; Rate 500 g/ha): 20
- Plant response rating, P. morninglory [5, 16]: 0
- Plant response rating, P. morninglory [5, 17]: 0
- Plant response rating, P. morninglory [5, 18]: 0
- Plant response rating, P. morninglory [5, 19]: 0
- Plant response rating, P. morninglory ([5]; Rate 250 g/ha): 0
- Plant response rating, P. morninglory ([5]; Rate 500 g/ha): 0
- Plant response rating, Green foxtail ([6]; Preemergence; Rate 16 g/ha; 0 to 100 scale, 0 no injury, 100 complete control): 40
- Plant response rating, Green foxtail ([6]; Preemergence; Rate 32 g/ha; 0 to 100 scale, 0 no injury, 100 complete control): 100
- Plant response rating, Green foxtail [6, 20]: 40
- Plant response rating, Green foxtail [6, 21]: 100
- Green foxtail plant response rating [6, 22]: 100
- Plant response rating, Green foxtail [6, 22]: 100
- Green foxtail plant response rating [6, 23]: 100
- Plant response rating, Green foxtail [6, 23]: 100
- Plant response rating, Green foxtail [6, 24]: 100
- Plant response rating, Green foxtail [6, 25]: 100
- Plant response rating, Bermudagrass [7, 16]: 85
- Plant response rating, Bermudagrass [7, 17]: 98
- Plant response rating, Bermudagrass [7, 18]: 100
- Plant response rating, Bermudagrass [7, 19]: 100
- Plant response rating, Bermudagrass ([7]; Rate 250 g/ha): 100
- Plant response rating, Bermudagrass ([7]; Rate 500 g/ha): 100
- Plant response rating, Itchgrass [8, 16]: 0
- Plant response rating, Itchgrass [8, 17]: 20
- Plant response rating, Itchgrass [8, 18]: 30
- Plant response rating, Itchgrass [8, 19]: 40
- Plant response rating, Itchgrass ([8]; Rate 250 g/ha): 98
- Plant response rating, Itchgrass ([8]; Rate 500 g/ha): 100
- Plant response rating, Sandbur [9, 16]: 0
- Plant response rating, Sandbur [9, 17]: 0
- Sandbur plant response rating [9, 18]: 30
- Sandbur plant response rating [9, 19]: 98
- Plant response rating, Sandbur ([9]; Rate 250 g/ha): 98
- Plant response rating, Sandbur ([9]; Rate 500 g/ha): 100
- Plant response rating, Green foxtail ([10]; Rate 250 g/ha): 100
- Plant response rating, Green foxtail ([10]; Rate 500 g/ha): 100
- Plant response rating, Tall Mallow [11, 16]: 0
- Plant response rating, Tall Mallow [11, 17]: 0
- Tall Mallow plant response rating [11, 18]: 0
- Tall Mallow plant response rating [11, 19]: 10
- Plant response rating, Tall Mallow ([11]; Rate 250 g/ha): 45
- Plant response rating, Tall Mallow ([11]; Rate 500 g/ha): 98
- Plant response rating, Johnsongrass [12, 16]: 0
- Plant response rating, Johnsongrass [12, 17]: 20
- Plant response rating, Johnsongrass [12, 18]: 20
- Plant response rating, Johnsongrass [12, 19]: 40
- Plant response rating, Johnsongrass ([12]; Rate 250 g/ha): 85
- Plant response rating, Johnsongrass ([12]; Rate 500 g/ha): 85
- Plant response rating, Goosegrass [13, 16]: 60
- Plant response rating, Goosegrass [13, 17]: 85
- Plant response rating, Goosegrass [13, 18]: 98
- Plant response rating, Goosegrass [13, 19]: 100
- Plant response rating, Goosegrass ([13]; Rate 250 g/ha): 100
- Plant response rating, Goosegrass ([13]; Rate 500 g/ha): 100
- Plant response rating, Dallisgrass [14, 16]: 40
- Plant response rating, Dallisgrass [14, 17]: 50
- Plant response rating, Dallisgrass [14, 18]: 100
- Plant response rating, Dallisgrass [14, 19]: 100
- Plant response rating, Dallisgrass ([14]; Rate 250 g/ha): 100
- Plant response rating, Dallisgrass ([14]; Rate 500 g/ha): 100
- Plant response rating, Surinam grass [15, 16]: 0
- Plant response rating, Surinam grass [15, 17]: 65
- Surinam grass plant response rating [15, 18]: 65
- Surinam grass plant response rating [15, 19]: 98
- Plant response rating, Surinam grass ([15]; Rate 250 g/ha): 98
- Plant response rating, Surinam grass ([15]; Rate 500 g/ha): 100

SMILES: CC(C)N(C(=O)n1oc(=O)n(C2CCCCC2)c1=O)c1ccc(F)cc1 [Compound 110]
- Plant response rating, Com. groundsel ([1]; Rate 250 g/ha): 20
- Plant response rating, Com. groundsel ([1]; Rate 500 g/ha): 20
- Plant response rating, Alexandergrass ([2]; Rate 250 g/ha): 100
- Plant response rating, Alexandergrass ([2]; Rate 500 g/ha): 100
- Plant response rating, C. purslane [3, 24]: 0
- Plant response rating, C. purslane [3, 26]: 0
- Plant response rating, Spanishneedles ([4]; Rate 500 g/ha): 0
- Plant response rating, P. morninglory ([5]; Rate 250 g/ha): 0
- Plant response rating, P. morninglory ([5]; Rate 500 g/ha): 0
- Plant response rating, Green foxtail [6, 24]: 100
- Plant response rating, Green foxtail [6, 25]: 100
- Plant response rating, Bermudagrass ([7]; Rate 250 g/ha): 100
- Plant response rating, Bermudagrass ([7]; Rate 500 g/ha): 100
- Plant response rating, Itchgrass ([8]; Rate 250 g/ha): 40
- Plant response rating, Itchgrass ([8]; Rate 500 g/ha): 40
- Plant response rating, Sandbur ([9]; Rate 250 g/ha): 98
- Plant response rating, Sandbur ([9]; Rate 500 g/ha): 98
- Plant response rating, Green foxtail ([10]; Rate 250 g/ha): 100
- Plant response rating, Green foxtail ([10]; Rate 500 g/ha): 100
- Plant response rating, Tall Mallow ([11]; Rate 250 g/ha): 0
- Plant response rating, Tall Mallow ([11]; Rate 500 g/ha): 0
- Plant response rating, Johnsongrass ([12]; Rate 250 g/ha): 20
- Plant response rating, Johnsongrass ([12]; Rate 500 g/ha): 45
- Plant response rating, Goosegrass ([13]; Rate 250 g/ha): 100
- Plant response rating, Goosegrass ([13]; Rate 500 g/ha): 100
- Plant response rating, Dallisgrass ([14]; Rate 250 g/ha): 100
- Plant response rating, Dallisgrass ([14]; Rate 500 g/ha): 100
- Plant response rating, Surinam grass ([15]; Rate 250 g/ha): 70
- Plant response rating, Surinam grass ([15]; Rate 500 g/ha): 85
